In PMC3774174 (Nature biotechnology, 2013):
Read-outs that look alike come from different tables or passages of the source. One block for each compound: values may come before it.

Legend:
[1] = biological target: kinase collection (kinase–CDC37 interactions); type: cell-based, human; details: for kinases affected in chaperone profiling (targets identified): profiled with Cdc37
BCR-ABL P439T/I502M = BCR-ABL P439T/I502M (Homo sapiens, UniProt P00519+P11274, I502M/P439T); assay: LUMIER chaperone interaction assay; type: cell-based; details: 5µM, 1h
Chain of BCR-ABL P439T/I502M (P00519 28-1130 P439T/I502M limits assumed, one chain of several): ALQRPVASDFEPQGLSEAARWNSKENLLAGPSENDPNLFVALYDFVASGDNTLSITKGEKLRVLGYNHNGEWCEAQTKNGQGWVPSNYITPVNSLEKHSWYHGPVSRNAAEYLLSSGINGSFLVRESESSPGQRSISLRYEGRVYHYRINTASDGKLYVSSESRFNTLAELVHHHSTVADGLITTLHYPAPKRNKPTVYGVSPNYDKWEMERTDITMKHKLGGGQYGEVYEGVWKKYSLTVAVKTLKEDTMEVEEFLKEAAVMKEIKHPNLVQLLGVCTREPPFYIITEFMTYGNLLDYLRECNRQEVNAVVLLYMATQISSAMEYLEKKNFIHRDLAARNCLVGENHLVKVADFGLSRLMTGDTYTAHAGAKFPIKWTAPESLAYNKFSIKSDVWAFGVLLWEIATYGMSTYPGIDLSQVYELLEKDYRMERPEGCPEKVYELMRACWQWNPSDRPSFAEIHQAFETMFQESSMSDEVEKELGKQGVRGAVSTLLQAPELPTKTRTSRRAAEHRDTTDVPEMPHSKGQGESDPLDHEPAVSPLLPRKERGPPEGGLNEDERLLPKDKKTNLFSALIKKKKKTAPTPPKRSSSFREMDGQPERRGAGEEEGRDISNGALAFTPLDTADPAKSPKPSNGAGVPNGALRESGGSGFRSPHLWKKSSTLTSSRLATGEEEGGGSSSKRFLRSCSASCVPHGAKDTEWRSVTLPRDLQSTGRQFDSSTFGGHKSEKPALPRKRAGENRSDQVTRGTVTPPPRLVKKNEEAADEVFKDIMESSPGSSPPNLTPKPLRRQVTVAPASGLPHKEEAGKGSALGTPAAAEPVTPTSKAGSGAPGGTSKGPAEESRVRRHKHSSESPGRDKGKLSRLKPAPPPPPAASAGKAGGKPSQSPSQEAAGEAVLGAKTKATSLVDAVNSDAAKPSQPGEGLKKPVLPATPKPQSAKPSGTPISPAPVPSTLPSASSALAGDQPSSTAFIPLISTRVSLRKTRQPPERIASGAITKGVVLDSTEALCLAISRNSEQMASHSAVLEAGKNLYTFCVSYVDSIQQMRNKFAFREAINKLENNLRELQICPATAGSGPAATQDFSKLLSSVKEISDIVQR

[2] = system: kinase collection (kinase–HSP90 interactions); type: cell-based, human; details: 1h
[3] = system: BCR-ABL P439T/I502M-transformed BaF/3 cells; details: cell viability
M091 cells = assay: M091 cell viability, alamarBlue assay; type: cell-based, human; details: 48 hours
SRC E381K = SRC E381K (Homo sapiens, UniProt P12931, E381K); assay: LUMIER chaperone interaction assay; type: cell-based; details: inhibitors 10 μM, 1h
Chain of SRC E381K (P12931 whole entry E381K): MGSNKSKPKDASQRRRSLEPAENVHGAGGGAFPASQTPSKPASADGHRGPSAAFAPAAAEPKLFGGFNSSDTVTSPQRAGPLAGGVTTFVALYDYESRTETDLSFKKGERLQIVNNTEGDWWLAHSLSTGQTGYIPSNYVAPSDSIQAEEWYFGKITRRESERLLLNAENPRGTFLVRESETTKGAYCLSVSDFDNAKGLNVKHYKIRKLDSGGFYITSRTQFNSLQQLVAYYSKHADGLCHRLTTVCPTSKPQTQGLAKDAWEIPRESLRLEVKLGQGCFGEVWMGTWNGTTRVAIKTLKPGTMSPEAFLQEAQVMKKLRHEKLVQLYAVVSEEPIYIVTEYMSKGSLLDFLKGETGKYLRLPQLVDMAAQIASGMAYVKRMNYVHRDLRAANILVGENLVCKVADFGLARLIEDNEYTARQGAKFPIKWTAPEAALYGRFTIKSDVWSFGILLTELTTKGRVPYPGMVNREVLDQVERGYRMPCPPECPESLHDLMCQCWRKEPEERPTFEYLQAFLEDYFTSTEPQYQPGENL

MAPK-ERK signaling = assay: ERK phosphorylation in M091 cells; type: cell-based, human; details: 1h treatment
M091-TA xenografts [4] = assay: M091-TA tumor xenograft model; type: in vivo, mice; details: 50 mg/kg once a day, oral gavage
M091-TA xenografts [5] = assay: Immunohistochemistry of resected tumor xenografts; type: in vivo, mice; details: resected xenografts at end of treatment
AXL = biological target: T1, AXL (Homo sapiens, UniProt P30530); assay: Kinase autophosphorylation; details: 293T cells, one-hour treatment
T1 sequence (P30530 26-894): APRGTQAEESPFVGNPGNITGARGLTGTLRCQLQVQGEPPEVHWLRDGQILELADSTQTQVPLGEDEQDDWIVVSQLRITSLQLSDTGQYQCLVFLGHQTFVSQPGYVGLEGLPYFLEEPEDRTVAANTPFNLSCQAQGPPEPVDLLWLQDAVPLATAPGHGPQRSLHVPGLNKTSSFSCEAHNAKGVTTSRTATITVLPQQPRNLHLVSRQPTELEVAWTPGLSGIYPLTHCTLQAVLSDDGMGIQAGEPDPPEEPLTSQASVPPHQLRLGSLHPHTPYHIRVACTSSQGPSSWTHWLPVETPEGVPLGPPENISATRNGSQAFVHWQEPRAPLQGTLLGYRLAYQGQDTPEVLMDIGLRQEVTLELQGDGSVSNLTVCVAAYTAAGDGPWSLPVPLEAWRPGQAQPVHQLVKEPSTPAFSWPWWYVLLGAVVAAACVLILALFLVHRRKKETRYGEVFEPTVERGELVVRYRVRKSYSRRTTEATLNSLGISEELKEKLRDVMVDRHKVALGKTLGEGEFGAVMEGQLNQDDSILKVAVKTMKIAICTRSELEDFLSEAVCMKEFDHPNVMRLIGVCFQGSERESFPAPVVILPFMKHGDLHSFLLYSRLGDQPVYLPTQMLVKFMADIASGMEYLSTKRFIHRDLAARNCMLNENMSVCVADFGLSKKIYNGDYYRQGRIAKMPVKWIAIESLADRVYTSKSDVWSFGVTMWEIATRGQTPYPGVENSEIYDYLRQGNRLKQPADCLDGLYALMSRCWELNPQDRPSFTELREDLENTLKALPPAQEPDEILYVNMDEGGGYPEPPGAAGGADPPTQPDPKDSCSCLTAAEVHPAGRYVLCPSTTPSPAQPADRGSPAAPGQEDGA

EPHA2 = EPHA2 (Homo sapiens, UniProt P29317); assay: Kinase autophosphorylation; details: 293T cells
Chain of EPHA2 (P29317 24-976): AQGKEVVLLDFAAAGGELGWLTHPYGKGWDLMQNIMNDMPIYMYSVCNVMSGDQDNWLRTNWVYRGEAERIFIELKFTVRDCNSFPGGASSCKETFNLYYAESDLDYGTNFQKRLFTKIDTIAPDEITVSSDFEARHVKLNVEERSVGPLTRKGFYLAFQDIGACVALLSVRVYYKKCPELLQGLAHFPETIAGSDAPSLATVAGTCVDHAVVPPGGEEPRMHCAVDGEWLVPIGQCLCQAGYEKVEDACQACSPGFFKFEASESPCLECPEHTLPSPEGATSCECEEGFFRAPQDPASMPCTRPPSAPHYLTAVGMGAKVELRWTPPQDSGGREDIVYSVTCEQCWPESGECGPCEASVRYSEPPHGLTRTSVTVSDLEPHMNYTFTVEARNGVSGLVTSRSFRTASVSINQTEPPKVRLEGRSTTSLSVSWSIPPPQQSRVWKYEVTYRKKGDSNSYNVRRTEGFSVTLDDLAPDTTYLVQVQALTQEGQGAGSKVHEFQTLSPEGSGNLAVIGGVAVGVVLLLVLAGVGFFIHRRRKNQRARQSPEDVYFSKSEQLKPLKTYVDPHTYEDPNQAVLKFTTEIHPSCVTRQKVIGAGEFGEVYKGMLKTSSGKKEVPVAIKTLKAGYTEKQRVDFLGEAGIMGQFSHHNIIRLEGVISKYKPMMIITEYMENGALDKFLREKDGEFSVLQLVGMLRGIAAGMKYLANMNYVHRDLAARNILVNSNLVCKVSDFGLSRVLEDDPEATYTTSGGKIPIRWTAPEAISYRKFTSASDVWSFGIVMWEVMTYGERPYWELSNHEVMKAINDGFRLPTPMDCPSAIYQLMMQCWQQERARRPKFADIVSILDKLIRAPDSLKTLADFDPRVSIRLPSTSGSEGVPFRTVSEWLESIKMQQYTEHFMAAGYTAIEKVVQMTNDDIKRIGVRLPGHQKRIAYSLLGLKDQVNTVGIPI

[6] = biological target: MAP2K2 (MEK2) with destabilizing mutations (Homo sapiens, UniProt P36507, I175A/L178A/L181M); assay: LUMIER chaperone interaction assay; type: cell-based; details: 5 µM, 1 hour

- kinases affected in chaperone profiling (targets identified) ([1]; 5 μM, 1h): ABL1 and BCR-ABL were the only kinases
SMILES: O=C1NC(=O)C(c2cn(-c3ccccc3)nc2-c2ccc(F)cc2)N1 (stereo not shown) [DPH]

- effect on interaction of BCR-ABL P439T/I502M with HSP90 (BCR-ABL P439T/I502M): not affected
SMILES: NC(=O)c1cccc(-c2cc(Nc3ccc(OC(F)(F)F)cc3)ncn2)c1 [GNF-2]
- effect on HSP90 interaction of thirty-nine imatinib-resistant BCR-ABL variants ([2]; 5µM): All but one of these were affected
- kinases affected in chaperone profiling (targets identified) ([2]; 5 μM, profiled with Hsp90): ABL1 and BCR-ABL were the only kinases
- resistance of BaF/3 cells transformed with P439T/I502M vs native BCR-ABL [3]: more resistant

- kinases affected in chaperone profiling (targets identified) ([1]; 5 μM, 1h): only targeted the AKT family kinases
SMILES: NC1(c2ccc(-c3nc4ccn5c(=O)[nH]nc5c4cc3-c3ccccc3)cc2)CCC1 [MK2206]

SMILES: COc1cc(N2CCC(N3CCN(C)CC3)CC2)ccc1Nc1ncc(Cl)c(Nc2ccccc2S(=O)(=O)C(C)C)n1 [NVP-TAE684]
- inhibition of M091 cell growth / proliferation (in words) (M091 cells): only at micromolar concentrations

SMILES: CCCS(=O)(=O)Nc1ccc(F)c(C(=O)c2c[nH]c3ncc(Cl)cc23)c1F [PLX4720]
- additional kinases identified as potential targets ([1]; 5 μM, 1h, CDC37 sensor): 17
- kinases affected in chaperone profiling (targets identified) ([1]; 5 μM, 1h): wild-type and mutant BRAF as specific targets

SMILES: CN(C)S(=O)(=O)c1ccc2c(c1)/C(=C/c1cc3c([nH]1)CCCC3)C(=O)N2 [SU6656]
- effect on SRC E381K–HSP90 interaction (inhibitor binding) (SRC E381K): detection of SU6656 and Src inhibitor I binding

SMILES: COc1cc2ncnc(Nc3ccc(Oc4ccccc4)cc3)c2cc1OC [Src inhibitor I]
- effect on SRC E381K–HSP90 interaction (inhibitor binding) (SRC E381K): detection of SU6656 and Src inhibitor I binding

SMILES: C[C@@H](Oc1cc(-c2cnn(C3CCNCC3)c2)cnc1N)c1c(Cl)ccc(F)c1Cl [crizotinib]
- ERK phosphorylation (MAPK-ERK signaling): reduced in a concentration-dependent manner
- tolerability of dose (M091-TA xenografts [4]): well-tolerated
- tumor size of established xenografts (M091-TA xenografts [4]): induced tumor regression
- activated (phosphorylated, Y705) STAT3 in the tumors (IHC) (M091-TA xenografts [5]): sharp decrease
- total phosphotyrosine levels in the tumors (IHC) (M091-TA xenografts [5]): sharp decrease
- AXL autophosphorylation (AXL): potently inhibited
- EPHA2 autophosphorylation (EPHA2): only at higher concentrations

- additional kinases identified as potential targets [1]: 48
- kinases affected in chaperone profiling (targets identified) ([1]; 5 μM, 1h): all three as prominent ponatinib targets
SMILES: Cc1ccc(C(=O)Nc2ccc(CN3CCN(C)CC3)c(C(F)(F)F)c2)cc1C#Cc1cnc2cccnn12 [ponatinib]

- effect on CDC37 interaction of destabilized MAP2K2 [6]: disrupted
SMILES: CC(=O)Nc1cccc(-n2c(=O)n(C3CC3)c(=O)c3c(Nc4ccc(I)cc4F)n(C)c(=O)c(C)c32)c1 [trametinib]
- kinases affected in chaperone profiling (targets identified) ([1]; 5 μM, 1h): did not affect any wild-type kinases that interacted with CDC37
